Measured values from patent US20140018552A1, “USE OF COMPOUNDS ISOLATED FROM MORUS BARK” (Dong Wha Pharm. Co., Ltd., priority 2011, published 2014).
Converted amounts (≈) assume the structure as drawn.

Tested on: AGE production
Experiment: Assay of inhibition effect on AGE production (BSA with fructose and glucose, fluorescence analysis)
Assay type: biochemical, bovine
Conditions: 10 mg/ml BSA, 0.2 M fructose and glucose, 37° for 7 days; fluorescence Ex 360 nm/Em 465 nm; average ± standard deviation
Protocol: After preparing 10 mg/ml bovine serum albumin (BSA) dissolved in 50 mM of phosphate buffer (pH 7.4), AGE production was induced by culturing the mixture of 0.2 M of fructose and glucose at 37 °C for 7 days. The compounds extracted from Morus Bark and prepared from Example 1 to 8 was handled in the concentration of 0.1 μg/Ml respectively. (All the compounds were dissolved in 100% of ethanol.) Pyridoxamine known for AGE inhibitor was used as a positive control group. AGE production was induced by using only fructose and glucose to BSA culturing at 37 °C for 7 days. It was handled in the concentration of 0.1 μg/Ml to 1000 μg/Ml.
After 7 days, the amount of AGE produced in culture medium was measured by using microplate reader (Excitation: 360 nm, Emission: 465 nm, fluorescence analysis).
The rate of inhibiting the production was counted by the following numerical formula. […] Also, the average and standard deviation of IC50 value were calculated from at least 3 independent experiments.
The rate of inhibiting the production (%)=100−(Fluorescence intensity of Experimental group−Fluorescence intensity of Reference)/(Fluorescence intensity of Control group−Fluorescence intensity of Control-Reference)×100

SMILES	IC50 [µM]	IC50 value [µg/mL]
Cc1ncc(CO)c(CN)c1O [Pyridoxamine, reference compound]	747 ± 213	125.7 ± 35.8 (≈ 747 µM)
CC1=C[C@H]2c3c(O)cc(-c4cc5ccc(O)cc5o4)cc3O[C@@]3(c4ccc(O)cc4O)Oc4cc(O)ccc4[C@H](C1)[C@@H]23 [Example. 1, Mulberrofuran G]	79.5 ± 19.4	44.7 ± 10.9 (≈ 79.5 µM)
Oc1cc(O)cc(/C=C/c2ccc(O)cc2O)c1 [Example. 5, Oxyresveratrol]	19.3 ± 4.1	4.7 ± 1.0 (≈ 19.2 µM)
O=C1CC(c2ccc(O)cc2O)Oc2cc(O)cc(O)c21 (centres unmarked) [Example. 6, 2′,4′,5,7-tetrahydroxyflavanone]	96.2 ± 10.1	27.7 ± 2.9 (≈ 96.1 µM)

More lines, in order of falling IC50, values ahead:

IC50 [µM]	IC50 value [µg/mL]	SMILES
160 ± 16.7	70.1 ± 7.3 (≈ 160 µM)	CC(C)(O)CCc1c(-c2ccc(O)cc2O)oc2cc3c(c(O)c2c1=O)C=CC(C)(C)O3 [Example. 7, Morusignin L]
81.9 ± 3.3	24.9 ± 1.0 (≈ 81.8 µM)	O=C1c2c(O)cc(O)cc2OC(c2ccc(O)cc2O)C1O (centres unmarked) [Example. 8, Dihydromorin]
46.1 ± 11.8	27.4 ± 7.0 (≈ 46.1 µM)	CC12CC(c3ccc(O)cc3O1)C13OC1(c1ccc(O)cc1O)Oc1cc(/C=C/c4ccc(O)cc4O)cc(O)c1C3C2=O (centres unmarked) [Example. 4, Kuwanon Z]
